According to patent US20230141887A1, “CRYSTAL FORM OF DIAZASPIROPYRAN COMPOUND” (MEDSHINE DISCOVERY INC., priority 2020, published 2023):

Columns and labels:
FLT3 = target: T1, FLT3 (Homo sapiens, UniProt P36888); test: Assay of FLT3 inhibitory activity in vitro (Promega FLT3 Kinase Enzyme System, ADP-Glo); assay type: biochemical; settings: 50 μmol/L ATP, 30° C., 120 minutes
T1 construct: purchased Promega
Description: The assay was carried out in duplicate. […] After the reaction was completed, 5 μL of ADP-Glo reagent was added to each well. The system was further reacted at 30° C. for 40 minutes. After the reaction was completed, 10 μL of kinase detection reagent was added to each well and reacted at 30° C. for 30 minutes. The chemiluminescence was then read by the PerkinElmer Envision multi-label analyzer with an integration time of 0.5 seconds.
The original data was converted into an inhibition rate, and the IC50 value can be obtained by four-parameter curve fitting.

FLT3(ITD, D835V) = target: T2, FLT3(ITD, D835V) (Homo sapiens, UniProt P36888, D835V, form not given); assay type: binding
T2 construct: fused on or other part: DNA tag for the qPCR read-out (the KINOMEscan format)
T2 sequence (P36888 1-993 D835V): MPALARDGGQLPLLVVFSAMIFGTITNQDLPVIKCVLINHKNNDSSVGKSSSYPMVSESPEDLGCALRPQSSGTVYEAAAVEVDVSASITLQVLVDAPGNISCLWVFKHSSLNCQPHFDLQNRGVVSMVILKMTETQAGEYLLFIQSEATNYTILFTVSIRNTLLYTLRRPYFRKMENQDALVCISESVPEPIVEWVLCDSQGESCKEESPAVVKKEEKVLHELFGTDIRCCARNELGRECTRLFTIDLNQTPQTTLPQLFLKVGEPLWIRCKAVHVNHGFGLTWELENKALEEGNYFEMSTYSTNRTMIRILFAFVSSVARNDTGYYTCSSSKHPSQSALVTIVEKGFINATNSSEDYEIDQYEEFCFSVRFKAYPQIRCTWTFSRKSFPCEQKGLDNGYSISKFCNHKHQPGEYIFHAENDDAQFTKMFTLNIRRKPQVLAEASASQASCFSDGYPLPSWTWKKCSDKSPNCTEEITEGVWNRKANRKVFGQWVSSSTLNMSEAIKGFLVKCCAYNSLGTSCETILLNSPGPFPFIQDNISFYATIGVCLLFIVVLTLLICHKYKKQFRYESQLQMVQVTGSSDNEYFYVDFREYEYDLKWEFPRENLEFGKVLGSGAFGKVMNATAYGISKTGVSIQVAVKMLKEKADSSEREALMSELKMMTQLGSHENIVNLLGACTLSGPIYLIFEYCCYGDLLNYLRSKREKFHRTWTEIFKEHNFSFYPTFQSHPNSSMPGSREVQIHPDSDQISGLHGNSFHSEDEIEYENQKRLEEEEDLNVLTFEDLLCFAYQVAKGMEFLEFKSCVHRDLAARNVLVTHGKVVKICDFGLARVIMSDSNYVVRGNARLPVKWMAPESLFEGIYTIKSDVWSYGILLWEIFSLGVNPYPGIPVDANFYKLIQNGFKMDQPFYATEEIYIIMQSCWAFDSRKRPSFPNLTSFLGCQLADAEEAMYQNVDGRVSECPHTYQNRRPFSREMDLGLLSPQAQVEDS
Description: The assay was carried out using KINOMEscan™ technology. The assay compounds were stored in 100% DMSO. The assay was carried out by means of 3-fold dilution and 11-point fitting. All compounds used for Kd determination were dispersed by ultrasound, then directly diluted and tested. All reactions were carried out in a 384-well polypropylene plate. Each portion has a final volume of 0.02 ml. The plate was incubated with shaking at room temperature for 1 hour, and then processed. The kinase concentration in the eluent was finally determined by qPCR method. Kd was obtained by fitting.

[1] = test system: human biphenotypic B bone marrow mononuclear leukemia cell MV4-11 subcutaneous xenograft tumor; test: Inhibition of MV4-11 subcutaneous xenograft tumor in vivo; set-up: species or system nude mice; settings: for % Inhibition rate on day 14 / Average tumor volume Day 14: Oral, Once a day
Description: In this assay, the anti-tumor effect of the compounds was evaluated using a nude mice model of subcutaneous xenograft tumor of human biphenotypic B bone marrow mononuclear leukemia cell MV4-11.
Human biphenotypic B bone marrow mononuclear leukemia cell MV4-11 was cultured in vitro in suspension with a RPMI1640 medium supplemented with 10% fetal bovine serum, 100 U/mL penicillin and 100 μg/mL streptomycin in a 5% CO2 cell incubator at 37° C. Routine passaging was performed twice a week. Cells in the logarithmic growth phase were collected, counted and then used for inoculation.
0.2 mL (1×10^7) of MV4-11 cells (plus matrigel, with a volume ratio of 1:1) were inoculated subcutaneously on the right back of each mouse. The grouping and dosing were started when the average tumor volume reached about 140-200 mm^3.
The diameter of the tumor was measured with vernier calipers twice a week. The formula for calculating the tumor volume is: V=0.5a×b^2, where a and b represent the long and short diameters of the tumor, respectively.

## CCc1nc(C(N)=O)c(Nc2ccc(N3CCC4(CCN(C)CC4)CC3)c(C)c2)nc1NC1CCOCC1.O=C(O)C(F)(F)F
FLT3
  IC50: 0.42 nM
FLT3(ITD, D835V)
  Kd: 0.2 nM
[1]; 1 mg/kg
  % Inhibition rate on day 14: 66.1%
  Average tumor volume Day 14: 375 mm^3
[1]; 1.5 mg/kg
  % Inhibition rate on day 14: 81.0%
  Average tumor volume Day 14: 273 mm^3
[1]; 4.5 mg/kg
  % Inhibition rate on day 14: 114.7%
  Average tumor volume Day 14: 51 mm^3
[1]; Day 0, one value for all groups, before dosing
  Average tumor volume Day 0: 149 mm^3
